In brackets after ≈: the same amount, converted by molar mass.

Results on 16 compounds are retold here after ChEMBL document CHEMBL4364264, “Tetrazole hybrids with potential anticancer activity” (Eur J Med Chem, 2019).

For experiment [1], the system named is MDA-MB-231. Briefly: Growth inhibition of human MDA-MB-231 cells by microtiter plate assay. The class given is functional.
For experiment [2], the system named is DU-145. In words: Growth inhibition of human DU145 cells by microtiter plate assay. In kind it is functional.
Experiment [3] has as its system MCF7. In words: Growth inhibition of human MCF7 cells by microtiter plate assay. In kind it is functional.
Experiment [4] concerns HepG2. In words: Cytotoxicity against human HepG2 cells after 96 hrs by MTT assay. The class given is functional, cell-based. The following applies: HepG2, 96 h.
The subject of experiment [5] is HCT-116. Briefly: Cytotoxicity against human HCT116 cells after 96 hrs by MTT assay. As to conditions: HCT-116, 96 h. The class given is functional, cell-based. Background: Tetrazolium dyes change colour on reduction, which living cells bring about.
For experiment [6], the system named is HeLa. In words: Growth inhibition of human HeLa cells. In kind it is functional.
For experiment [7], the system named is HepG2. Briefly: Growth inhibition of human HepG2 cells. In kind it is functional.
The subject of experiment [8] is MCF7. In words: Growth inhibition of human MCF7 cells. In kind it is functional.
The subject of experiment [9] is HT-29. Briefly: cells. As to conditions: Homo sapiens, HT-29, 48 h.
Description: Antiproliferative activity against human HT-29 cells after 48 hrs by MTT assay
The subject of experiment [10] is PC-3. In words: cells. The following applies: Homo sapiens, PC-3, 48 h.
The subject of experiment [11] is HepG2. Briefly: Cytotoxicity against human HepG2 cells.

Usually GI50 stands for the concentration at which growth is held to half of that of the control. High values mean less potent growth inhibition, low ones more potent growth inhibition. On to `CCc1cc2c(cc1O)CC[C@@H]1[C@@H]2CC[C@]2(C)[C@@H](Cc3nnnn3C)CC[C@@H]12`, for which the GI50 in [1], in [2] and in experiment [3] was 0.34 to 100 µM in each case.

Usually IC50 stands for the concentration at which inhibition is half-maximal. Higher therefore signals weaker potency in that assay. Turning to `CC[C@H](CC[C@@H](C)[C@H]1CC[C@H]2[C@H]3[C@H](CC[C@]12C)[C@@]1(C)CCCCC1=Cc1nnnn13)C(C)C`, the figures for the half-inhibitory concentration (IC50) in experiment [4] and in experiment [5] were 4.82 µM and 4.58 µM, respectively.

`CN(C)C(=O)NC(c1ccc(Cl)cc1)n1cnnn1` (configuration not stated): the concentration for 50% growth inhibition (GI50) in [6], in experiment [7] and in experiment [8] was 8.2 to 41 µM in each case.

As for `NC(=S)NNC(c1ccc(Cl)cc1)n1cnnn1` (configuration not stated), the GI50 in experiment [6], in experiment [7] and in [8] was 5.2 to 29.8 µM in each case.

In the case of `NC(=S)NNC(c1ccccc1)n1cnnn1` (configuration not stated), the GI50 in experiment [6], in [7] and in [8] was 5.2 to 8.1 µM throughout.

Turning to `COc1ccccc1-c1nn(-c2ccccc2)cc1-c1nnn(CC(=O)O)n1`, the IC50 in experiment [9] and in experiment [10] was 7.23 to 48.3 µM in each case.

Take `COc1ccc(-c2nn(-c3ccccc3)cc2-c2nnn(CC(=O)O)n2)cc1`: the IC50 in experiment [9] and in experiment [10] was 7.23 to 48.3 µM throughout.

With `CN(C)C(=O)NC(c1ccccc1)n1cnnn1` (configuration not stated), the GI50 in [6], in experiment [7] and in [8] was 8.2 to 41 µM in each case.

`CCc1cc2c(cc1O)CC[C@@H]1[C@@H]2CC[C@]2(C)[C@@H](Cc3nnn(C)n3)CC[C@@H]12`: the GI50 in [1], in experiment [2] and in experiment [3] was 0.8 to 47 µM in each case.

Turning to `CCc1cc2c(cc1OS(N)(=O)=O)CC[C@@H]1[C@@H]2CC[C@]2(C)[C@@H](Cc3nnn(C)n3)CC[C@@H]12`, the GI50 in [1], in experiment [2] and in experiment [3] was 0.8 to 47 µM throughout.

In the case of `NC(=S)NNC(c1ccc(O)cc1)n1cnnn1` (configuration not stated), the concentration for 50% growth inhibition (GI50) in experiment [6], in experiment [7] and in experiment [8] was 5.2 to 29.8 µM in each case.

`CCc1cc2c(cc1OS(N)(=O)=O)CC[C@@H]1[C@@H]2CC[C@]2(C)[C@@H](Cc3nnnn3C)CC[C@@H]12`: the GI50 in experiment [1], in experiment [2] and in experiment [3] was 0.34 to 0.55 µM in each case.

In the case of `CN(C)C(=O)NC(c1ccc(O)cc1)n1cnnn1` (configuration not stated), the concentration for 50% growth inhibition (GI50) in experiment [6], in experiment [7] and in experiment [8] was 8.2 to 41 µM throughout.

On to `CCc1cc2c(cc1O)CC[C@@H]1[C@@H]2CC[C@]2(C)[C@@H](Cc3nnn[nH]3)CC[C@@H]12`, for which the concentration for 50% growth inhibition (GI50) in experiment [1], in experiment [2] and in experiment [3] was 0.34 to 100 µM throughout.

`CCc1cc2c(cc1OS(N)(=O)=O)CC[C@@H]1[C@@H]2CC[C@]2(C)[C@@H](Cc3nnn[nH]3)CC[C@@H]12`: the GI50 in [1], in [2] and in [3] was 0.34 to 100 µM throughout.

Regarding `COc1cccc2c1C(=O)c1c(O)c3c(c(O)c1C2=O)C[C@@](O)(C(=O)CO)C[C@@H]3O[C@H]1C[C@H](N)[C@H](O)[C@H](C)O1` [DOXORUBICIN], the IC50 stood at 2.24 µM in experiment [9]; 3.86 µM in experiment [10]; 2.85 µM in experiment [4]; 4 µg/mL (≈ 7.36 µM) in [11]; 2.6 µM in experiment [5].
